Results taken from patent US5250700A, “Phenyl pyrazolidinones as bronchodilators and anti-inflammatory agents” (American Home Products Corporation, priority 1992, dated 1993).
Where a name gives a salt, the structure may show the parent alone.

test system: PDE IV; assay: Inhibition of PDE IV isolated from canine tracheal muscle (cAMP metabolism); format: biochemical; conditions: at 10^-5 (concentration unit not given); percentage of the reduction induced by 10 μM rolipram; canine trachealis PDE IV
Procedure: The following assay is employed to assess the ability of the compound of the invention to inhibit PDE IV. A solution containing PDE IV is prepared from canine tracheal muscle as follows: The dog is euthanized with an overdose of euthanasia while under anesthesia induced by a 33 mg/kg IV bolus of Nembutal. The trachealis muscle is removed, cleaned of connective tissue, and minced thoroughly. Three to four grams of tissue is then homogenized in Trim-HCl buffer (pH 7.8) using a Polytron. The homogenate is then centrifuged at 25,000×g (4° C.) for 30 minutes. The supernatant is decanted and filtered through four layers of gauze, and applied to a 40 cm×2 cm DEAE-Sepharose column that is equilibrated with Trim-HCl buffer (pH 7.8). The column is then washed with an additional 240 mL of buffer to remove unbound proteins. […] Each fraction is assayed for cAMP- and cGMP- metabolizing PDE activity. Fractions eluting at approximately 0.6 M Na-acetate, and containing CAMP but not CGMP metabolic activity are pooled and used as a PDE stock solution for assaying PDE IV inhibitory activity. […] CI-930 is included as an inhibitor of the cyclic GMP-sensitive, cyclic AMP-selectivePDE (PDE III) that is also present in the PDE IV stock solution when prepared as described above.

| SMILES | inhibition of PDE IV (percentage) [%] |
| --- | --- |
| COc1ccc(C2CC(=O)NN2CC(=O)O)cc1OC1CCCC1 (centres unmarked) [Example 7] | 39 |
| COc1ccc(C2CC(=O)N(C(=O)Nc3ccccc3)N2C)cc1OC1CCCC1 (centres unmarked) [Example 16, 3-[3-(cyclopentyloxy)-4-methoxyphenyl-2-methyl-5-oxo-N-phenyl-1-pyrazolidinecarboxamide hydrochloride] | 48 |
| COc1ccc(C2CC(=O)NN2C(N)=O)cc1OC1CCCC1 (centres unmarked) [Example 5, 5-[3-(Cyclopentyloxy)-4-methoxyphenyl]-3-oxo-1-pyrazolidinecarboxamide] | 39 |
| COC(=O)N1NC(=O)CC1c1ccc(OC)c(OC2CCCC2)c1 (centres unmarked) [Example 6, 5-[3-(Cyclopentyloxy)-4-methoxyphenyl]-3-oxo-1-pyrazolidinecarboxylic acid methyl ester] | 52 |

same assay, conditions: canine trachealis PDE IV, 1 μM 3H-cAMP, 10 μM CI-930, 30° C., pH 7.8; reduction expressed relative to 10 μM rolipram

| IC50 [nM] | SMILES |
| --- | --- |
| 150 | COc1ccc(C2CC(=O)N(C(=O)NCc3cccs3)N2C)cc1OC1CCCC1 (centres unmarked) [Example 39, 3-(3-Cyclopentyloxy-4-methoxyphenyl)-2-methyl-5-oxo-pyrazolidine-1-carboxylic acid thiophen-2-yl methylamide] |
| 310 | COc1ccc(-c2cc(=O)[nH]n2C)cc1OC1CCCC1 [Example 10, 5-[3-(cyclopentyloxy)-4-methoxyphenyl]-1,2-dihydro-1-methyl-3H-pyrazol-3-one] |
| 49 | CCNC(=O)N1C(=O)CC(c2ccc(OC)c(OC3CCCC3)c2)N1C (centres unmarked) [Example 15, 3-[3-(cyclopentyloxy)-4-methoxylphenyl]-N-ethyl-2-methyl-5-oxo-1-pyrazolidinecarboxamide hydrochloride, hydrate] |
| 100 | COc1ccc(C2CC(=O)N(C(=O)NC3CCCCC3)N2C)cc1OC1CCCC1 (centres unmarked) [Example 18, N-cyclohexyl-3-[3-(cyclopentyloxy)-4-methoxyphenyl]-2-methyl-5-oxo-1-pyrazolidine carboxamide hydrochloride] |
| 53 | COc1ccc(CNC(=S)N2C(=O)CC(c3ccc(OC)c(OC4CCCC4)c3)N2C)cc1 (centres unmarked) [Example 21, 3-[3-(cyclopentyloxy)-4-methoxyphenyl]-N-[(4-methoxyphenyl)methyl]-2-methyl-5-oxo-1-pyrazolidinecarbothioamide] |
| 420 | COc1ccc(-c2cc(=O)n(C(=O)NCc3ccccn3)n2C)cc1OC1CCCC1 [Example 12, 3-[3-(cyclopentyloxy)-4-methoxyphenyl]-2.5-dihydro-2-methyl-5-oxo-N-(2-pyridinylmethyl)-1H-pyrazole-1-carboxamide] |
| 5600 | CCN(CC)CCNC(=O)N1C(=O)CC(c2ccc(OC)c(OC3CCCC3)c2)N1C (centres unmarked) [Example 36, 3-(3-Cyclopentyloxy-4-methoxyphenyl)-2-methyl-5-oxo-pyrazolidine-1-carboxylic acid 2-(diethyl-amino) ethylamide] |
| 81 | COc1ccc(C2CC(=O)N(C(=O)/C=C/c3cncc(Br)c3)N2C)cc1OC1CCCC1 (centres unmarked) [Example 33] |
| 440 | COC(=O)CN1NC(=O)CC1c1ccc(OC)c(OC2CCCC2)c1 (centres unmarked) [Example 4, 5-[3-(Cyclopentyloxy)-4-methoxylphenyl]-3-oxo-1-pyrazolidineacetic acid methyl ester] |
| 50 | COc1ccc(C2CC(=O)N(C/C=C/c3cncc(Br)c3)N2C)cc1OC1CCCC1 (centres unmarked) [Example 30, 2-[(E)-3-(5-bromo-3-pyridinyl)-2-propenyl]-5-[3-(cyclopentyloxy)-4-methoxyphenyl]-1-methyl-3-pyrazolidinone hemi(dichloromethane)] |
| 320 | COc1ccc(C2CC(=O)N(C(N)=O)N2Cc2ccccc2)cc1OC1CCCC1 (centres unmarked) [Example 23] |
| 380 | COc1ccc(-c2cc(=O)n(C(N)=O)n2C)cc1OC1CCCC1 [Example 11, 3-[3-(cyclopentyloxy)-4-methoxylphenyl]-2.5-dihydro-2-methyl-5-oxo-1H-pyrazole-1-carboxamide] |
| 260 | CCCCNC(=O)N1C(=O)CC(c2ccc(OC)c(OC3CCCC3)c2)N1C (centres unmarked) [Example 14, N-butyl-3-f3-(cyclopentyloxy)-4-methoxyphenyl]-2-methyl-5-oxo-1-pyrazolidinecarboxamide hydrochloride] |
| 680 | COc1ccc(C2CC(=O)NN2C)cc1OC1CCCC1 (centres unmarked) [Example 2, 5-[3--(Cyclopentyloxy)-4-methoxyphenyl]-1-methyl-3-pyrazolidinone] |
| 340 | COc1ccc(C2CC(=O)N(C(=O)c3cccnc3)N2C)cc1OC1CCCC1 (centres unmarked) [Example 32, 5-[3-(cyclolpentyloxy)-4-methoxyphenyl]-1-methyl-2-(3-pyridinylcarbonyl)-3-pirazolidinone hemihydrate] |
| 2400 | COc1ccc(C2CC(=O)N(C(=O)NCCN3CCOCC3)N2C)cc1OC1CCCC1 (centres unmarked) [Example 41, 3-(3-Cyclolpentyloxy-4-methoxyphenyl)-2-methyl-5-oxo-pyrazolidine-1-carboxylic acid 2-morlpholin-4-yl ethylamide] |
| 18 | COc1ccc(C2CC(=O)N(C(=O)N[C@@H](C)c3cccc4ccccc34)N2C)cc1OC1CCCC1 (single isomer, unassigned) [13 B] |

| IC50 [nM] | SMILES |
| --- | --- |
| 36 | COc1ccc(C2CC(=O)N(C(=O)NCc3ccccc3)N2C)cc1OC1CCCC1 (centres unmarked) [Example 17, 3-[3-(cyclopentyloxy)-4-methoxyphenyl]-2-methyl-5-oxo-N-(phenylmethyl)-1-pyrazolidinecarboxamide hydrochloride] |
| 160 | COc1ccc(C2CC(=O)N(CCCc3cccnc3)N2C)cc1OC1CCCC1 (centres unmarked) [Example 29, 5-[3(cyclopentyloxy)-4-methoxyphenyl]-1-methyl-2-[3-(3-pyridinyl)propyl]-3-pyrazolidinone quarter dichloromethane] |
| 820 | COc1ccc(C2CC(=O)N(C)N2C)cc1OC1CCCC1 (centres unmarked) [Example 3, 5-[3-(Cyclopentyloxy)-4-methoxyphenyl]-1,2-dimethyl-3-pyrazolidinone, hydriodide] |
| 85 | COc1ccc(C2CC(=O)N(C(=O)NCc3cccnc3)N2C)cc1OC1CCCC1 (centres unmarked) [Example 24, 3-[3-(cyclopentyloxy)-4-methoxyphenyl]-2-methyl-5-oxo-N-(3-pyridinylmethyl)-1-pyrazolidine carboxamide] |
| 350 | COc1ccc(C2CC(=O)N(C(=O)c3cncc(Br)c3)N2C)cc1OC1CCCC1 (centres unmarked) [Example 28, 5-[3-(cyclopentyloxy)-4-methoxyphenyl]-1-methyl-2-(5-bromo-3-pyridinylcarbonyl)-3-pyrazolidinone] |
| 560 | COc1ccc(C2CC(=O)N(C(=O)NCCCN3CCCC3=O)N2C)cc1OC1CCCC1 (centres unmarked) [Example 38, 3-(3-Cyclopentyloxy-4-methoxyphenyl)-2-methyl-5-oxo-pyrazolidine-1-carboxylic acid 3-(2-oxo-pyrrolidin-1-yl) propylamide] |
| 12 | COc1ccc(C2CC(=O)N(C(=O)N[C@@H](C)c3cccc4ccccc34)N2C)cc1OC1CCCC1 (single isomer, unassigned) [13 A] |
| 170 | CCCCCCCN1C(=O)CC(c2ccc(OC)c(OC3CCCC3)c2)N1C (centres unmarked) [Example 26, 5-[3-(cyclopentyloxy)-4-methoxyphenyl-2-heptyl-1-methyl-3-pirazolidinone hydrochloride] |
| 210 | COc1ccc(C2CC(=O)N(C(=O)NCCCn3ccnc3)N2C)cc1OC1CCCC1 (centres unmarked) [Example 42, 3-(3-Cyclopentyloxy-4-methoxyphenyl)-2-methyl-5-oxo-pyrazolidine-1-carboxylic acid 3-imidazol-1-yl propylamide] |
| 65 | COc1ccc(C2CC(=O)N(C(=S)NCc3ccc(F)cc3)N2C)cc1OC1CCCC1 (centres unmarked) [Example 20, 3-[3-(cyclopentyloxy)-4-methoxyphenyl]-N-[(4-fluorophenyl)-methyl]-2-methyl-5-oxo-1-pyrazolidinecarbothioamide] |
| 4100 | CCN1NC(=O)CC1c1ccc(OC)c(OC2CCCC2)c1 (centres unmarked) [Example 35, 5-[3-(cyclopentyloxy)-4-methoxyphenyl]-1-ethyl-3-pyrazolidinone] |
| 210 | COc1ccc(C2CC(=O)N(C(=O)Nc3ccc(F)cc3)N2C)cc1OC1CCCC1 (centres unmarked) [Example 22] |
| 940 | COc1ccc(C2CC(=O)N(Cc3cncc(Br)c3)N2C)cc1OC1CCCC1 (centres unmarked) [Example 27, 2-[(5-bromo-3-pyridinyl)methyl]-5-[3-(cyclopentyloxy)-4-methoxyphenyl]-1-methyl-3-pyrazolidinone hydrochloride] |
| 340 | COc1ccc(C2CC(=O)NN2)cc1OC1CCCC1 (centres unmarked) [Example 1, 5-[3-(Cyclopentyloxy)-4-methoxyphenyl]-3-pyrazolidinone] |
| 1500 | COc1ccc(C2CC(=O)N(Cc3cccnc3)N2C)cc1OC1CCCC1 (centres unmarked) [Example 25, 5-[3-(cyclopentyloxy)-4-methoxyphenyl]-1-methyl-2-(3-pyridinylmethyl)-3-pyrazolidinone hydrochloride dehydrate] |
| 980 | COc1ccc(C2CC(=O)N(C(C)=O)N2C)cc1OC1CCCC1 (centres unmarked) [Example 31, 2-acetyl-5-[3-(cyclopentyloxy)-4-methoxyphentyl]-1-methyl-3-pyrazolidinone hydrochloride] |

| SMILES | IC50 [nM] |
| --- | --- |
| COc1ccc(NC(=O)N2C(=O)CC(c3ccc(OC)c(OC4CCCC4)c3)N2C)cc1 (centres unmarked) [Example 19, 3-[3-(cyclopentyloxy)-4-methoxyphenyl]-N-(4-methoxyphenyl)-2-methyl-5-oxo-1-pyrazolidinecarboxamide] | 120 |
